The Deep4Chem optical property database
Each block holds one compound with its values, some of them ahead of it.

Test: solvent given as SMILES
[1] = in c1ccc2c(c1)c1ccccc1n2-c1ccc(-c2ccc(-n3c4ccccc4c4ccccc43)cc2)cc1

Structure (SMILES): COC(=O)C(Cc1ccc2oc(-c3ccncc3)nc2c1)NC(=O)OC(C)(C)C (stereo not given)
fluorescence lifetime (in CC1CCCCC1): 0.609 ns
fluorescence lifetime (in CC#N): 1.19 ns
fluorescence lifetime (in CO): 2.17 ns

Structure (SMILES): CC1(C)c2ccccc2N(c2ccc(C(=CC#N)c3ccc(N4c5ccccc5C(C)(C)c5ccccc54)cc3)cc2)c2ccccc21
fluorescence lifetime (in Cc1ccccc1): 5.09 ns

Structure (SMILES): Cc1cc(C)c(C)c(B(c2c(C)c(C)c(N3c4ccccc4Oc4ccccc43)c(C)c2C)c2c(C)c(C)c(N3c4ccccc4Oc4ccccc43)c(C)c2C)c1C
fluorescence lifetime (in CC(C)(C)c1ccc(-n2c3ccc([Si](c4ccccc4)(c4ccccc4)c4ccccc4)cc3c3cc([Si](c4ccccc4)(c4ccccc4)c4ccccc4)ccc32)cc1): 2.9 ns

Structure (SMILES): C=CCOc1nnc(OCCC(F)(F)C(F)(F)C(F)(F)C(F)(F)C(F)(F)C(F)(F)F)nn1
fluorescence lifetime (in ClCCl): 63.8 ns
fluorescence lifetime (in OCC(F)(F)F): 8.7 ns

Structure (SMILES): CC(C)(C)c1ccc2c(c1)c1cc(C(C)(C)C)ccc1n2-c1ccc2c(c1)C(=O)c1ccc(-n3c4ccc(C(C)(C)C)cc4c4cc(C(C)(C)C)ccc43)cc1C2=O
fluorescence lifetime (in Cc1ccccc1): 7.5 ns
fluorescence lifetime [1]: 10.4 ns

Structure (SMILES): CCCCCCCCN1c2ccccc2Sc2cc(/C=C/c3ccc(N(c4ccc(/C=C/c5ccc6c(c5)Sc5ccccc5N6CCCCCCCC)cc4)c4ccc(/C=C/c5ccc(/C=C/c6ccc(N(c7ccc(/C=C/c8ccc9c(c8)Sc8ccccc8N9CCCCCCCC)cc7)c7ccc(/C=C/c8ccc9c(c8)Sc8ccccc8N9CCCCCCCC)cc7)cc6)c6nsnc56)cc4)cc3)ccc21
fluorescence lifetime (in C1CCOC1): 1.45 ns
fluorescence lifetime (in CCOC(C)=O): 1.83 ns
fluorescence lifetime (in Cc1ccccc1): 3.53 ns
fluorescence lifetime (in ClC(Cl)Cl): 2.25 ns
fluorescence lifetime (in ClCCl): 2 ns

Structure (SMILES): O=C1c2ccc(-c3ccc(N(c4ccc(-c5ccccc5)cc4)c4ccc(-c5ccccc5)cc4)cc3)cc2C(=O)c2ccc(-c3ccc(N(c4ccc(-c5ccccc5)cc4)c4ccc(-c5ccccc5)cc4)cc3)cc21
fluorescence lifetime (in Cc1ccccc1): 11.2 ns
fluorescence lifetime [1]: 10.2 ns

Structure (SMILES): CN(C)c1ccc(-c2nc3c(c4c2-c2ccc(C#N)cc2CC4)-c2ccc(C#N)cc2CC3)cc1
fluorescence lifetime (in C1CCOC1): 2.93 ns
fluorescence lifetime (in CC#N): 3.56 ns
fluorescence lifetime (in CCCCCC): 0.6 ns
fluorescence lifetime (in CCOC(C)=O): 2.55 ns
fluorescence lifetime (in CO): 1.13 ns
fluorescence lifetime (in CS(C)=O): 1.79 ns
fluorescence lifetime (in Cc1ccccc1): 1.4 ns
fluorescence lifetime (in ClCCl): 1.68 ns

Structure (SMILES): Cn1cccc1-c1ccc(C#N)cc1
fluorescence lifetime (in CC#N): 5.4 ns
fluorescence lifetime (in CCCCCC): 1.8 ns
fluorescence lifetime (in CCOCC): 5.21 ns

Structure (SMILES): CCN1C(=O)C(C2C(=O)c3c4ccccc4cc4cc5ccccc5c2c34)C(=O)N(CC)C1=S (stereo not given)
fluorescence lifetime (in C1CCOC1): 11.1 ns
fluorescence lifetime (in CCCCCC): 13.1 ns
fluorescence lifetime (in Cc1ccccc1): 12.4 ns
fluorescence lifetime (in ClCCl): 10.5 ns

Structure (SMILES): CCOC(=O)CN1C(=O)C2=C(c3ccc(C#N)cc3)N(CC(=O)OCC)C(=O)C2=C1c1ccccc1
fluorescence lifetime (in CC#N): 5.78 ns
fluorescence lifetime (in CS(C)=O): 7.07 ns
fluorescence lifetime (in Cc1ccccc1): 4.24 ns

Structure (SMILES): CCC1=C(C)C2=C(C)c3cc(I)c(I)n3[B-](F)(F)[N+]2=C1C
fluorescence lifetime (in C1CCCCC1): 1.02 ns
fluorescence lifetime (in CC(C)=O): 0.82 ns
fluorescence lifetime (in CCO): 0.939 ns
fluorescence lifetime (in CCOC(C)=O): 0.893 ns
fluorescence lifetime (in CO): 0.882 ns
fluorescence lifetime (in OCC(F)(F)F): 0.779 ns

Structure (SMILES): CCCCCCCCCCCCCCCCOc1cc(C#Cc2ccc3ccccc3c2)c(OCCCCCCCCCCCCCCCC)cc1C#Cc1ccc(C=C(C#N)C#N)cc1
fluorescence lifetime (in Brc1ccccc1): 2.82 ns
fluorescence lifetime (in C1CCCCC1): 1.92 ns
fluorescence lifetime (in C1CCOC1): 0.98 ns
fluorescence lifetime (in C1COCCO1): 3.1 ns
fluorescence lifetime (in CCCCCC): 1.97 ns
fluorescence lifetime (in CCCCCCCCO): 0.62 ns
fluorescence lifetime (in CCCCOCCCC): 2.73 ns
fluorescence lifetime (in CCOC(C)=O): 1.05 ns
fluorescence lifetime (in CCOCC): 3.33 ns
fluorescence lifetime (in Cc1ccccc1): 2.53 ns
fluorescence lifetime (in ClC(Cl)(Cl)Cl): 1.94 ns
fluorescence lifetime (in ClC(Cl)Cl): 2.26 ns
fluorescence lifetime (in ClCCl): 0.63 ns

Structure (SMILES): CC(=O)O[B-]1(OC(C)=O)OC(/C=C/c2ccc(C)cc2)=CC(/C=C/c2ccc(C)cc2)=[O+]1
fluorescence lifetime (in C1CCOC1): 1.32 ns
fluorescence lifetime (in CC#N): 1.23 ns
fluorescence lifetime (in CC(C)=O): 1.19 ns
fluorescence lifetime (in CS(C)=O): 1.27 ns
fluorescence lifetime (in Cc1ccccc1): 1.34 ns
fluorescence lifetime (in ClC(Cl)Cl): 1.25 ns
fluorescence lifetime (in ClCCl): 1.26 ns

Structure (SMILES): N[C@@H](Cc1ccc(O)cc1)C(=O)O
fluorescence lifetime (in O): 3.27 ns

Structure (SMILES): COc1cc2cc(/C=C/c3ccc(/C=C(\C#N)C(=O)O)cc3)c(=O)oc2cc1OC
fluorescence lifetime (in CC#N): 2.06 ns

Structure (SMILES): Cc1ccc2c(c1)C(c1ccccc1)(c1ccccc1)c1cc(C)ccc1N2c1ccc2c(c1)Oc1ccccc1B2c1c(C(C)C)cc(C(C)C)cc1C(C)C
fluorescence lifetime (in Cc1ccccc1): 23 ns
fluorescence lifetime (in O=P(c1ccccc1)(c1ccccc1)c1ccc2oc3ccc(P(=O)(c4ccccc4)c4ccccc4)cc3c2c1): 28 ns

Structure (SMILES): c1ccc(-c2nc(-c3ccccc3)nc(-c3ccc(N4c5ccccc5C5(c6ccccc6-c6ccccc65)c5ccccc54)cc3)n2)cc1
fluorescence lifetime (in O=P(c1ccccc1)(c1ccccc1)c1ccccc1Oc1ccccc1P(=O)(c1ccccc1)c1ccccc1): 33 ns

Structure (SMILES): Cc1ccccc1-c1cc(-c2ccc(N3c4ccccc4C(C)(C)c4ccccc43)cc2)nc(-c2ccccc2)n1
fluorescence lifetime (in Cc1ccccc1): 2.76 ns
fluorescence lifetime (in ClCCl): 22.7 ns

The next lines start with the values.

fluorescence lifetime (in CC#N): 402 ns
Structure (SMILES): CC1(C)[C@@H]2[C@@H]1[C@]1(c3ccccc3)N=NC2(c2ccccc2)C2C3C=CC(C3)C21 (stereo not given in full)

fluorescence lifetime (in CCO): 5.19 ns
fluorescence lifetime (in ClC(Cl)Cl): 3.16 ns
fluorescence lifetime (in ClCCl): 5.8 ns
Structure (SMILES): CCN(CC)c1ccc2c(-c3ccccc3C(=O)O)c3c([o+]c2c1)/C(=C/Nc1ccccc1)CCC3

fluorescence lifetime (in ClCCl): 3 ns
Structure (SMILES): CCN(CC)c1ccc2cc(C#N)/c(=N\C(=O)c3ccco3)oc2c1

fluorescence lifetime (in ClCCl): 1.61 ns
Structure (SMILES): FC(F)(F)c1ccc(-n2c(-c3ccc(N(c4ccc(-c5ccc(N(c6ccc(-c7nc8c9ccccc9c9ccccc9c8n7-c7ccc(C(F)(F)F)cc7)cc6)c6ccc(-c7nc8c9ccccc9c9ccccc9c8n7-c7ccc(C(F)(F)F)cc7)cc6)cc5)cc4)c4ccc(-c5nc6c7ccccc7c7ccccc7c6n5-c5ccc(C(F)(F)F)cc5)cc4)cc3)nc3c4ccccc4c4ccccc4c32)cc1

fluorescence lifetime (in ClC(Cl)Cl): 3.11 ns
Structure (SMILES): CC1=CC(C)=[N+]2C1=C(c1ccc(I)cc1)c1c(C)cc(C)n1[B-]2(F)F

fluorescence lifetime (in CCCCCCC): 4.3 ns
Structure (SMILES): c1ccc(Nc2nc(Nc3ccccc3)nc(Nc3ccc4ccc5cccc6ccc3c4c56)n2)cc1

fluorescence lifetime (in CC1CCCCC1): 1.05 ns
fluorescence lifetime (in CC#N): 1.14 ns
fluorescence lifetime (in CO): 1.21 ns
Structure (SMILES): C=CCOc1ccc(-c2nc3cc(C(NC(=O)OC(C)(C)C)C(=O)OC)ccc3o2)cc1 (stereo not given)

fluorescence lifetime (in CS(C)=O): 0.55 ns
Structure (SMILES): Brc1ccc(-c2nc(-c3ccc(-c4nc(-c5ccc(Br)cc5)c(-c5ccc(Br)cc5)[nH]4)cc3)[nH]c2-c2ccc(Br)cc2)cc1

fluorescence lifetime (in ClCCl): 8.11 ns
Structure (SMILES): Cc1ccc(C2=[N+]3C(=Cc4ccc(C)n4[B-]3(F)F)c3ccccc32)[nH]1

fluorescence lifetime (in ClC(Cl)Cl): 5.16 ns
Structure (SMILES): CC(C)n1c(=O)c2cc3ccc4cccc5ccc(c2c1=O)c3c45

fluorescence lifetime (in CCCCCC): 3.8 ns
fluorescence lifetime (in CO): 7.5 ns
fluorescence lifetime (in CS(C)=O): 6.6 ns
fluorescence lifetime (in ClC(Cl)Cl): 5.6 ns
fluorescence lifetime (in ClCCl): 6.2 ns
fluorescence lifetime (in O): 2.3 ns
Structure (SMILES): O=S(=O)(/N=c1\oc2cccc3c4c(-c5ccccc5)oc5cccc(c(c1-c1ccccc1)c23)c54)C(F)(F)F

fluorescence lifetime (in ClCCl): 1.52 ns
Structure (SMILES): CCCCC(CC)COc1ccc2nc(-c3ccc(-c4ccc(OC)cc4)s3)sc2c1 (stereo not given)

fluorescence lifetime (in c1cc(-c2cccc(-n3c4ccccc4c4ccccc43)c2)cc(-n2c3ccccc3c3ccccc32)c1): 54 ns
Structure (SMILES): CC(C)c1cc(C(C)C)c(B2c3cc(N4c5ccccc5Oc5ccccc54)ccc3N(c3ccccc3)c3ccc(N4c5ccccc5Oc5ccccc54)cc32)c(C(C)C)c1

fluorescence lifetime (in C1CCOC1): 3.03 ns
Structure (SMILES): CC(C)(C)c1ccc(C2=C(c3ccc(N(c4ccccc4)c4ccccc4)cc3)S(=O)(=O)c3c2sc(-c2ccc(N(c4ccccc4)c4ccccc4)cc2)c3-c2ccc(C(C)(C)C)cc2)cc1

fluorescence lifetime (in ClC(Cl)Cl): 2.4 ns
Structure (SMILES): COc1ccc2cc(-c3ccccc3CC#N)c(=O)oc2c1

fluorescence lifetime (in C1CCOC1): 5.14 ns
Structure (SMILES): CCn1c2ccccc2c2cc(-c3cc(-c4ccc5c(c4)c4ccccc4n5CC)nc(-c4ccc(C#N)cc4)n3)ccc21

fluorescence lifetime (in C1CCCCC1): 0.49 ns
Structure (SMILES): COC(=O)c1nc(Br)c(-c2ccccc2)o1

fluorescence lifetime (in CN(C)C=O): 3.1 ns
Structure (SMILES): O=C1NC(=O)c2ccc3c4ccc5c6c(ccc(c7ccc1c2c73)c64)C(=O)N(c1ccc(Cl)cc1)C5=O

fluorescence lifetime (in ClCCl): 6.45 ns
Structure (SMILES): CCCCCCCCCCCCN1C(=O)c2c(c3ccc4cc(-c5ccc(C=O)cc5)c(OC)cc4c3c3c2ccc2cc(-c4ccc(C=O)cc4)c(OC)cc23)C1=O
